# Experiments:
# Format in all cases: cell-based
# [1] = system: KRAS G12D mutant human lung cancer cell A427; test: 3D cell proliferation inhibition assay, A427; details: A-427, 168 h, A427, 7 days, CTG, class symbols
# Method in brief: (§1)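 Cells seeded at 5×10^2 per well in low-adsorption plates with compounds at 10000–0.026 nM final (0.2% DMSO) and grown 7 days at 37 °C, 5% CO2. Viability by CellTiter-Glo luminescence after 60 min at room temperature; inhibition normalized to DMSO and medium-only controls, IC50 from nonlinear log-concentration fit.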
# [2] = molecular target: T1, KRAS-G12D (Homo sapiens, UniProt P01116, G12D); test: KRAS-G12D degradation assay (Western Blot), A-427 cells; details: A427 cells, 24 h, class symbols; for Dmax: A-427
# T1 construct: endogenous in cells; host or cells: A-427 (ATCC), AGS, AsPc-1, Panc 04.03
# Method in brief: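 Each KRAS G12D mutant line (A-427, AGS, AsPc-1, Panc 04.03) was seeded at 5×10^5 cells/well and treated 24 h at 37 °C with 0.03–3000 nM compound (final DMSO 0.25%). KRAS in lysates was measured by Western blot, normalized to β-actin and compared with controls, giving DC50 and Dmax from curve fits.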
# [3] = system: KRAS G12D mutant human gastric cancer cell AGS; test: 3D cell proliferation inhibition assay, AGS; details: 168 h, 7 days, CTG, class symbols
# Method in brief: as §1
# T1 sequence (P01116 1-188 isoform P01116-2 G12D): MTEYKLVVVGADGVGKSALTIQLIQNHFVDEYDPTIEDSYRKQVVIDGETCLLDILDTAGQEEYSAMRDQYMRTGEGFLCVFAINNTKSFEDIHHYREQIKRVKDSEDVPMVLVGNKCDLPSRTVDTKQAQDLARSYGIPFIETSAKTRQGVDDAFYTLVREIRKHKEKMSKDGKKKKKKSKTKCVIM
smiles,measurement,setting,value
"C#Cc1c(F)ccc2cc(O)cc(-c3ncc4c(N5CC6CCC(C5)N6)nc(OCC5(CN6CCN(CCC7CCN(C(=O)c8ccc(Cl)c(N9CCC(=O)NC9=O)c8)CC7)CC6)CC5)nc4c3F)c12 [Example 3, 1-(5-(4-(2-(4-((1-(((4-(3,8-diazabicyclo[3.2.1]octan-3-yl)-7-(8-ethynyl-7-fluoro-3-hydroxynaphthalen-1-yl)-8-fluoropyrido[4,3-d]pyrimidin-2-yl)oxy)methyl)cyclopropyl)methyl)piperazin-1-yl)ethyl)piperidine-1-carbonyl)-2-chlorophenyl)dihydropyrimidine-2,4(1H,3H)-dione]",IC50,[1],1 to 10 µM
same,DC50,[2],≤ 0.05 µM
same,Dmax,[2],50 to 80%
same,IC50,[3],≤ 0.05 µM
"C#Cc1c(F)ccc2cc(O)cc(-c3ncc4c(N5CC6CCC(C5)N6)nc(OCC5(CN6CCN(CCCC7CCN(C(=O)c8ccc(Cl)c(N9CCC(=O)NC9=O)c8)CC7)CC6)CC5)nc4c3F)c12 [Example 4, 1-(5-(4-(3-(4-((1-(((4-(3,8-diazabicyclo[3.2.1]octan-3-yl)-7-(8-ethynyl-7-fluoro-3-hydroxynaphthalen-1-yl)-8-fluoropyrido[4,3-d]pyrimidin-2-yl)oxy)methyl)cyclopropyl)methyl)piperazin-1-yl)propyl)piperidine-1-carbonyl)-2-chlorophenyl)dihydropyrimidine-2,4(1H,3H)-dione]",IC50,[1],0.1 to 0.5 µM
same,DC50,[2],≤ 0.05 µM
same,Dmax,[2],80 to 100%
same,IC50,[3],0.05 to 0.1 µM
"C#Cc1c(F)ccc2cc(O)cc(-c3ncc4c(N5CC6CCC(C5)N6)nc(OCC5(CN6CCN(CCCCC7CCN(C(=O)c8ccc(Cl)c(N9CCC(=O)NC9=O)c8)CC7)CC6)CC5)nc4c3F)c12 [Example 5, 1-(5-(4-(4-(4-((1-(((4-(3,8-diazabicyclo[3.2.1]octan-3-yl)-7-(8-ethynyl-7-fluoro-3-hydroxynaphthalen-1-yl)-8-fluoropyrido[4,3-d]pyrimidin-2-yl)oxy)methyl)cyclopropyl)methyl)piperazin-1-yl)butyl)piperidine-1-carbonyl)-2-chlorophenyl)dihydropyrimidine-2,4(1H,3H)-dione]",IC50,[1],0.05 to 0.1 µM
same,DC50,[2],≤ 0.05 µM
same,Dmax,[2],80 to 100%
same,IC50,[3],≤ 0.05 µM
"C#Cc1c(F)ccc2cc(O)cc(-c3ncc4c(N5CC6CCC(C5)N6)nc(OCC5(CN6CCN(CC7CCC8(CC7)CCN(C(=O)c7ccc(Cl)c(N9CCC(=O)NC9=O)c7)CC8)CC6)CC5)nc4c3F)c12 [Example 6, 1-(5-(9-((4-((1-(((4-(3,8-diazabicyclo[3.2.1]octan-3-yl)-7-(8-ethynyl-7-fluoro-3-hydroxynaphthalen-1-yl)-8-fluoropyrido[4,3-d]pyrimidin-2-yl)oxy)methyl)cyclopropyl)methyl)piperazin-1-yl)methyl)-3-azaspiro[5.5]undecane-3-carbonyl)-2-chlorophenyl)dihydropyrimidine-2,4(1H,3H)-dione]",IC50,[1],≤ 0.05 µM
same,DC50,[2],≤ 0.05 µM
same,Dmax,[2],80 to 100%
same,IC50,[3],≤ 0.05 µM
"C#Cc1c(F)ccc2cc(O)cc(-c3ncc4c(N5CC6CCC(C5)N6)nc(OCC5(CN6CCN(CCCC7CCC8(CC7)CCN(C(=O)c7ccc(Cl)c(N9CCC(=O)NC9=O)c7)CC8)CC6)CC5)nc4c3F)c12 [Example 7, 1-(5-(9-(3-(4-((1-(((4-(3,8-diazabicyclo[3.2.1]octan-3-yl)-7-(8-ethynyl-7-fluoro-3-hydroxynaphthalen-1-yl)-8-fluoropyrido[4,3-d]pyrimidin-2-yl)oxy)methyl)cyclopropyl)methyl)piperazin-1-yl)propyl)-3-azaspiro[5.5]undecane-3-carbonyl)-2-chlorophenyl)dihydropyrimidine-2,4(1H,3H)-dione]",IC50,[1],≤ 0.05 µM
same,DC50,[2],≤ 0.05 µM
same,Dmax,[2],80 to 100%
same,IC50,[3],≤ 0.05 µM
"C#Cc1c(F)ccc2cc(O)cc(-c3ncc4c(N5CC6CCC(C5)N6)nc(OCC5(CN6CCN(CCCC7CCN(C(=O)c8ccc(OC)c(N9CCC(=O)NC9=O)c8)CC7)CC6)CC5)nc4c3F)c12 [Example 8, 1-(5-(4-(3-(4-((1-(((4-(3,8-diazabicyclo[3.2.1]octan-3-yl)-7-(8-ethynyl-7-fluoro-3-hydroxynaphthalen-1-yl)-8-fluoropyrido[4,3-d]pyrimidin-2-yl)oxy)methyl)cyclopropyl)methyl)piperazin-1-yl)propyl)piperidine-1-carbonyl)-2-methoxyphenyl)dihydropyrimidine-2,4(1H,3H)-dione]",IC50,[1],0.05 to 0.1 µM
same,DC50,[2],≤ 0.05 µM
same,Dmax,[2],50 to 80%
same,IC50,[3],≤ 0.05 µM
C#Cc1c(F)ccc2cc(O)cc(-c3ncc4c(N5CC6CCC(C5)N6)nc(OCC5(CN6CCC(CCOCC7CCN(C(=O)c8ccc(Cl)c(N9CCC(=O)NC9=O)c8)CC7)CC6)CC5)nc4c3F)c12 [Example 10],IC50,[1],0.1 to 0.5 µM
same,DC50,[2],≤ 0.05 µM
same,Dmax,[2],80 to 100%
same,IC50,[3],≤ 0.05 µM
"C#Cc1c(F)ccc2cc(O)cc(-c3ncc4c(N5CC6CCC(C5)N6)nc(OCC5(CN6CCC(COCC7CCN(C(=O)c8ccc(Cl)c(N9CCC(=O)NC9=O)c8)CC7)CC6)CC5)nc4c3F)c12 [Example 13, 1-(5-(4-(((1-((1-(((4-(3,8-diazabicyclo[3.2.1]octan-3-yl)-7-(8-ethynyl-7-fluoro-3-hydroxynaphthalen-1-yl)-8-fluoropyrido[4,3-d]pyrimidin-2-yl)oxy)methyl)cyclopropyl)methyl)piperidin-4-yl)methoxy)methyl)piperidine-1-carbonyl)-2-chlorophenyl)dihydropyrimidine-2,4(1H,3H)-dione]",IC50,[1],0.05 to 0.1 µM
same,DC50,[2],0.05 to 0.1 µM
same,Dmax,[2],50 to 80%
same,IC50,[3],≤ 0.05 µM
"C#Cc1c(F)ccc2cc(O)cc(-c3ncc4c(N5CC6CCC(C5)N6)nc(OCC5(CN6CCN(CC7CCC8(CC7)CCN(C(=O)c7ccc(OC)c(N9CCC(=O)NC9=O)c7)CC8)CC6)CC5)nc4c3F)c12 [Example 14, 1-(5-(9-((4-((1-(((4-(3,8-diazabicyclo[3.2.1]octan-3-yl)-7-(8-ethynyl-7-fluoro-3-hydroxynaphthalen-1-yl)-8-fluoropyrido[4,3-d]pyrimidin-2-yl)oxy)methyl)cyclopropyl)methyl)piperazin-1-yl)methyl)-3-azaspiro[5.5]undecane-3-carbonyl)-2-methoxyphenyl)dihydropyrimidine-2,4(1H,3H)-dione]",IC50,[1],≤ 0.05 µM
same,DC50,[2],≤ 0.05 µM
same,Dmax,[2],80 to 100%
same,IC50,[3],≤ 0.05 µM
"C#Cc1c(F)ccc2cc(O)cc(-c3ncc4c(N5CC6CCC(C5)N6)nc(OCC5(CN6CCN(CC7CCC8(CC7)CCN(C(=O)c7ccc(OC)c(N9CCC(=O)NC9=O)c7)CC8)CC6)CCC5)nc4c3F)c12 [Example 25, 1-(5-(9-((4-((1-(((4-(3,8-diazabicyclo[3.2.1]octan-3-yl)-7-(8-ethynyl-7-fluoro-3-hydroxynaphthalen-1-yl)-8-fluoropyrido[4,3-d]pyrimidin-2-yl)oxy)methyl)cyclobutyl)methyl)piperazin-1-yl)methyl)-3-azaspiro[5.5]undecane-3-carbonyl)-2-methoxyphenyl)dihydropyrimidine-2,4(1H,3H)-dione]",IC50,[1],0.1 to 0.5 µM
same,DC50,[2],≤ 0.05 µM
same,Dmax,[2],50 to 80%
